Results on ten molecules are retold here after BindingDB's records for doi:10.1021/cb300426u (University of St. Andrews, 2013).

This assay deals with Glucose-1-phosphate thymidylyltransferase (Pseudomonas aeruginosa (strain ATCC 15692 / DSM 22644 / CIP 104116 / JCM 14847 / LMG 12228 / 1C / PRS 101 / PAO1), UniProt Q9HU22). In words: Inhibition Assay. An excerpt: Inhibition assay using glucose-1-phosphate thymidylyltransferase (RmlA).
Sequence of Glucose-1-phosphate thymidylyltransferase (Q9HU22 whole entry): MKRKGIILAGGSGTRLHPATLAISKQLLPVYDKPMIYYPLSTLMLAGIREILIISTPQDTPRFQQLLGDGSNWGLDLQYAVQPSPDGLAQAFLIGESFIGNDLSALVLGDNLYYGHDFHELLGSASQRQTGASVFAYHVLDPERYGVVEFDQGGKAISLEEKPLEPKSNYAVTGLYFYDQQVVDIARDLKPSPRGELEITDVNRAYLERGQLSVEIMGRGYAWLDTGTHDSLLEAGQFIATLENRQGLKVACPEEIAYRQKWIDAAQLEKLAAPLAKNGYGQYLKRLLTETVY

With `CCCCn1c(N)c(N(C)S(=O)(=O)c2ccccc2)c(=O)[nH]c1=O` [Analogue of 1a, 1], the midpoint of inhibition, the IC50, lay at 210 nM. As for `CCN(c1c(N)n(Cc2ccccc2)c(=O)[nH]c1=O)S(=O)(=O)c1ccccc1` [Analogue of 1a, 8b], 102 nM corresponded to half-maximal inhibition (IC50). For `CCCN(c1c(N)n(Cc2ccccc2)c(=O)[nH]c1=O)S(=O)(=O)c1ccccc1` [Analogue of 1a, 8c], the 50% inhibitory concentration (IC50) (in general, the concentration at which inhibition is half-maximal) was greater than 10000 nM. Regarding `Nc1c(NS(=O)(=O)c2ccccc2)c(=O)[nH]c(=O)n1Cc1ccccc1` [Analogue of 1a, 15a], half-maximal inhibition (IC50) was put at 1320 nM. In the case of `CN(C(=O)c1ccccc1)c1c(N)n(Cc2ccccc2)c(=O)[nH]c1=O` [Analogue of 1a, 8f] it was greater than 60000 nM; in that of `CN(c1c(N)n(Cc2ccccc2)c(=O)[nH]c1=O)S(=O)(=O)c1ccco1` [Analogue of 1a, 8t], 105 nM.

Molecule `CN(c1c(N)n(Cc2ccccc2)c(=O)[nH]c1=O)S(=O)(=O)c1ccccc1` [Analogue of 1a, 8a] gave an IC50 of 73 nM. Consider `CCCCn1c(N)c(N(C)C(=O)c2ccco2)c(=O)[nH]c1=O` [Analogue of 1a, 5], for which the half-inhibitory concentration (IC50) was found to be 5900 nM. Take `Nc1c(O)n(Cc2ccccc2)c(=O)[nH]c1=O` [Analogue of 1a, 2]: the IC50 was 1140 nM. `CNc1c(N)n(Cc2ccccc2)c(=O)[nH]c1=O` [6-azanyl-5-(methylamino)-1-(phenylmethyl)pyrimidine-2,4-dione] registered a half-inhibitory concentration (IC50) greater than 60000 nM.
